Assay [1] relates to N. europaea. Put plainly: O2 consumption measurements. It is filed as cell-based. Particulars: [NH4+] 3 mM, 20° C. As for the experimental part: O2 consumption rates of cell suspensions of N. europaea were measured using a Clark-type oxygen electrode (Rank Brothers, Cambridge, UK) mounted in a water-jacketed electrode chamber (3 mL capacity) that was connected to a recirculating cooler (Lauda, Austria). The data were recorded using a Data-trax™ (World Precision Instruments, UK) sensor data collection system. All measurements were taken at 20° C. and 1 mL final reaction solution volume. The polarizing voltage was set to 0.6 V. To calibrate the oxygen signal, an excess (approximately 50 mg) of Na2S2O4 was added to 1 mL of Milli-Q water to chemically remove dissolved O2. […] The voltage at saturated O2 concentration (“100% O2”) was determined by measuring the voltage of the equilibrated aerated reaction system consisting of 1 mL Milli-Q water. Sample measurements were taken as follows: The 1 mL reaction mixture, composed of 980 μL N. europaea cell solution in NaPB (OD600=0.8; corresponding to approximately 468 μg/L protein) was equilibrated for 5 min in the chamber until the voltage reading was stable. […] After 4 min of oxygen consumption (a linear rate coefficient of approximately kobs=k=274.7+20.0 nmol O2 L^−1 s^−1 was determined), 10 μL of the inhibitor stock solution of MPT in DMSO (1.2 mM and 0.6 mM) were added via a 10-μL Eppendorf pipette through a capillary opening, ensuring the emergence of the pipette tip in the solution. […]

For assay [2], the system named is N. multiformis. Kind of assay: standard nitrification inhibition assay (NO2- production, Griess). It is filed as cell-based, Nitrosospira multiformis. The conditions noted are these: [NH4+]=3 mM, [inhibitor]=0.3 mM (10 mol %), pH 7.5, 30° C., 60 min. Here is the method:
Cells of N. multiformis and N. europaea were cultivated to the mid-exponential growth phase (OD600=0.1, [NO2^−] approximately 800 μM) and harvested by filtration onto 0.2 μm membrane filters (Mixed Cellulose Ester (MCE), Sigma Aldrich). The cells were washed with 2×100 mL of 0.1 M sodium phosphate buffer (NaPB), containing 0.2 mM MgSO4 at pH 7.5. The cells were washed from the filter paper by transferring it to a sterile 50 mL tube and resuspending in NaPB (15 mL), followed by 5 s of vortexing (Ratek, Australia) and 3 s of sonication (Vevor, Australia). […] Experiments were performed in triplicate.
In a deep 96-well plate (2 mL capacity), 980 μL of the bacterial inoculum (OD600=0.03) was added to the inhibitor (10 μL, 30 mmol L^−1 in Milli-Q water), the solutions were mixed thoroughly and pre-incubated in the dark for 5 minutes at 100 rpm and 30° C. (NH4)2SO4 (10 μL, 150 mM, from a prepared sterile solution containing 19.8 g L^−1 (NH4)2SO4 in Milli-Q water) was then added using a multi-channel pipette. The plate was covered with a with an O2 permeable membrane to ensure aeration (Breathe-Easy® sealing membrane, Sigma Aldrich) and incubated in a temperature-regulated rotary incubator (Ratek, Australia) in the dark for 60 minutes at 30° C. and 100 rpm. An aliquot of the reaction solution ([…]) was transferred to a 96-well spectrophotometric plate to which 50 µL of Griess reagent was added. The colour was allowed to develop for 15 minutes at room temperature, and the absorbance was measured at 540 nm. Each assay was accompanied by control treatments to determine the 0% and 100% NO2 signal. The percentage inhibition was calculated according to eqn. 1 from the NO2 production of the cells in NaPB (i) without additive (‘untreated cells’: 0% signal), (ii) with [NH4^+]=3 mM (‘uninhibited’ cells: 100% signal) and (iii) with [NH4^+]=3 mM and [inhibitor]=0.3 mM and 0.03 mM (10 mol % and 1 mol % of [NH4^+], ‘inhibited cells’). Experiments were performed in triplicate.
In general terms: Nitrite, measured by Griess reagent, commonly stands in for NO production.

The values below come from patent US20260215425A1, “NITRIFICATION INHIBITORS” (The University of Melbourne, priority 2022, published 2026).

As to `C#CCn1cc(C)nn1` [Compound 4-MPT, 4-Methyl-1-(prop-2-yn-1yl)-1H-1,2,3-triazole], the “observed rate coefficient kobs for the O2 consumption” value in assay [1] ([MPT]=0.6 mM) amounted to 0.0027 s⁻¹; in assay [1] ([MPT]=1.2 mM), 0.0045 s⁻¹. Also, the “% Inhibition NM” value in assay [2] came to 75%.
